Laboratory results: PMC3519852, “Non-Traditional Antibacterial Screening Approaches for the Identification of Novel Inhibitors of the Glyoxylate Shunt in Gram-Negative Pathogens” (PLoS ONE, 2012)

How the values were obtained:
[1] = biological target: T1, ICL (Pseudomonas aeruginosa, UniProt Q9I0K4); assay: absorbance at […] nm, phenylhydrazine assay; assay type: biochemical
T1 construct: gene PA2634
T1 sequence (Q9I0K4 1-531): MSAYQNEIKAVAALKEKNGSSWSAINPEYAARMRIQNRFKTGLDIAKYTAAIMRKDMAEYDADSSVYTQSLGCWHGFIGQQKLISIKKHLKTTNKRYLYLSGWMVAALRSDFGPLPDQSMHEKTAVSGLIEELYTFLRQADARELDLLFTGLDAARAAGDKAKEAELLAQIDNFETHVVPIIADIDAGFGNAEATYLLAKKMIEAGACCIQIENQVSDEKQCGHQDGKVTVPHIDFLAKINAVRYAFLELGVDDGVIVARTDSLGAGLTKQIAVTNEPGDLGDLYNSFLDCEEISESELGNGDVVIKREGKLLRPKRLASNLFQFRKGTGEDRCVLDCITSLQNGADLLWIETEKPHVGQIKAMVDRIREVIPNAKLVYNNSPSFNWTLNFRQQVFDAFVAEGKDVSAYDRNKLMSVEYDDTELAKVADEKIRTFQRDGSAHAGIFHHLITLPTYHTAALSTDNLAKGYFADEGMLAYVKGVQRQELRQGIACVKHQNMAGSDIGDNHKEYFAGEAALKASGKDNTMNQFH

[2] = biological target: T2, MS (Pseudomonas aeruginosa, UniProt Q9I636); assay: DTNB detection of coenzyme A at […] nm; assay type: biochemical
T2 construct: gene glcB
T2 sequence (Q9I636 whole entry): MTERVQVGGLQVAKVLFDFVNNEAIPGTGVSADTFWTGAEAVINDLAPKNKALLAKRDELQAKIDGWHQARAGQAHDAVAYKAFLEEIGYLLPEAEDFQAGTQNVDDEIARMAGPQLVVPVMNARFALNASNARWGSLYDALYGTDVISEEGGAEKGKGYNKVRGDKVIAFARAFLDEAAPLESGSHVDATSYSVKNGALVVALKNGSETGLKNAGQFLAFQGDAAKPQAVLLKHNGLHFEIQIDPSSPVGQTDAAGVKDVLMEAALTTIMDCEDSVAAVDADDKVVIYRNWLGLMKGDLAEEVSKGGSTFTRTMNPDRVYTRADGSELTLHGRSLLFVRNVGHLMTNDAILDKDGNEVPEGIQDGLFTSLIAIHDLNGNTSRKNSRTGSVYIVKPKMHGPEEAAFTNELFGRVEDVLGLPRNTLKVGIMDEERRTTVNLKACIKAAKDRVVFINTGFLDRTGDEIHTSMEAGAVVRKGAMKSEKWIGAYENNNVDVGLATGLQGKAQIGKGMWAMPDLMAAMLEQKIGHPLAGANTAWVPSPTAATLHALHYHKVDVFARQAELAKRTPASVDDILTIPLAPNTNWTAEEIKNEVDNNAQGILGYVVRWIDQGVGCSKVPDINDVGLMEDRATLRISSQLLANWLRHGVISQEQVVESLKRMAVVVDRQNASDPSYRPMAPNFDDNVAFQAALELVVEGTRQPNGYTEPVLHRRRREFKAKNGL

Structure (SMILES): CC(C)(C)OC(=O)/N=C(\NC(=O)OC(C)(C)C)Nc1cc(Cl)ccn1 [compound 3, Compound 3]
- IC50 [1]: 170 nM
- IC50 [2]: 5300 nM

Structure (SMILES): N=C(N)Nc1cccc2ncccc12 [compound 7, Compound 7]
- IC50 [1]: 190 nM
- IC50 [2]: 6930 nM

Structure (SMILES): CC(C)(C)OC(=O)NC(=Nc1cc(CCC(=O)O)ccn1)NC(=O)OC(C)(C)C [compound 4, Compound 4]
- IC50 [1]: 30 nM
- IC50 [2]: 1290 nM

Structure (SMILES): N=C(N)Nc1ccc2nn[nH]c2c1 [compound 8, Compound 8]
- IC50 [1]: 370 nM
- IC50 [2]: 8880 nM

Structure (SMILES): COc1ccccc1N1CCN(CCCNC(=O)C(Cc2ccc(F)c(F)c2)C(C)=O)CC1 (racemic) [compound 2, Compound 2]
- IC50 [1]: 240 nM
- IC50 [2]: 1770 nM

Structure (SMILES): Nc1nnc(SCc2ccc(O)c3ncccc23)s1 [compound 1, Compound 1]
- IC50 [1]: 690 nM
- IC50 [2]: 180 nM
